A word on the EC50: it is the midpoint of the concentration-response curve. As a reminder, the IC50 is the point on the concentration scale where inhibition reaches its midpoint.

Experiment [1] deals with NQO1 mRNA in BEAS-2B cells. Kind of experiment: Beas2B NQO1 mRNA cell based assay. More on the design: species or system human. The note with it: Homo sapiens, BEAS-2B, 24 h, 24 h compound treatment, increase in NQO1 mRNA vs vehicle (0.1% DMSO), read-out: EC50. On the procedure:
Beas2B NQO1 mRNA Cell Based Assay
The up regulation of the NRF2 mediated gene NAD(P)H:quinone acceptor oxidoreductase 1 (NQO1) was measured using the following assay method: BEAS-2B cells (ATCC CRL-9609) were plated in 96-well clear plates at 20,000 cells/well in 75 μL of cell culture media and incubated overnight (37° C., 5% CO2). On day 2, 25 μL of compound or controls were added to the cells for 24 h. On day 3, the medium was aspirated from the plate and the Cells-to-CT™ 1-Step TaqMan® Kit (Ambion A25603) was used to perform expression analysis directly from cultured cells without RNA purification according to the manufacturer's instructions.
Briefly, cells were washed with ice cold PBS and 22.5 μL of room-temperature DNase/Lysis solution was added to the cells and incubated at room temperature for 5 minutes. To stop the reaction, 2.25 μL of stop solution was added to the cell lysate. The samples were diluted 1:5 using nuclease free water and 2.5 μL transferred into the PCR plate. Real-time PCR was performed using the C-1000 Thermal Cycler (Bio-Rad) using human beta actin as the internal control. The cDNA was amplified with a specific primer for NQO1 using the 1-step RT-PCR master mix (Ambion Cells-to-CT™ 1-Step TaqMan® Kit A25603). The primers/probes sets that were used for amplification of cDNA were obtained from TaqMan Gene Expression Assays (Applied Biosystems). The comparative CT (ΔΔCT) relative quantification method was used to calculate the relative mRNA level of the target gene NQO1 as described in the Applied Biosystems Chemistry Guide.

The target in experiment [2] is human KEAP1 (N-term, residues 321-609) (Homo sapiens, UniProt Q14145). Nature of the experiment: biochemical.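 Note: fluorescence polarization competition assay of Kelch domain binding to NRF2, 12-point 1:3 dilution series from 10 µM, read after 1 h at room temperature, floor 10 nM.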
Sequence of human KEAP1 (N-term, residues 321-609) (Q14145 321-609): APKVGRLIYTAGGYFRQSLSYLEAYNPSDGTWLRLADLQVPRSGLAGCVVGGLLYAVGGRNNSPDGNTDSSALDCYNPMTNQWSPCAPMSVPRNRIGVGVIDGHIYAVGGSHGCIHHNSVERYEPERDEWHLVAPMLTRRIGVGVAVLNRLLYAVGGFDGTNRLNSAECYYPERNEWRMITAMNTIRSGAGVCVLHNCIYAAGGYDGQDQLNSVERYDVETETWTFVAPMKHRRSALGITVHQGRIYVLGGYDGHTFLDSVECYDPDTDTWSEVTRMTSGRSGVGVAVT
Protocol: Biological Assays KEAP1 Kelch Fluorescence Polarization (FP) Assay Method
Inhibition of the Kelch domain-NRF2 interaction was determined using a fluorescence polarization-based competition assay in a black 384-well microplate. Compounds were tested at a starting concentration of 10 μM serially diluted 1:3 to generate a 12-point dose response curve on the Biomek FX robot.
After 1 h at room temperature, fluorescence polarization (excitation 470 nm/emission 530 nm) was measured using an Envision plate reader. IC50 values were determined by fitting the data to a four parameter logistic fit using XLfit or XE Runner within ActivityBase.

With `C[C@]1(C(=O)O)CCCC[C@H]1C(=O)N1CCc2c(Cl)ccc(OCc3noc4c(F)c(F)ccc34)c2[C@H]1CN1CCCC1=O` [Example 165, (1S,2R)-2-((S)-5-chloro-8-((6,7-difluorobenzo[d]isoxazol-3-yl)methoxy)-1-((2-oxopyrrolidin-1-yl)methyl)-1,2,3,4-tetrahydroisoquinoline-2-carbonyl)-1-methylcyclohexane-1-carboxylic acid], in experiment [1], the EC50 was 11 nM. Further, 8.4 nM corresponded to half-maximal inhibition in experiment [2] (IC50).

Regarding `Cc1nnc(COc2ccc(Cl)c3c2[C@@H](CN2CC4(CC4)CC2=O)N(C(=O)[C@@H]2CCCC[C@]2(C)C(=O)O)CC3)n1C1CC1` [Example 177, (1S,2R)-2-((S)-5-chloro-8-((4-cyclopropyl-5-methyl-4H-1,2,4-triazol-3-yl)methoxy)-1-((6-oxo-5-azaspiro[2.4]heptan-5-yl)methyl)-1,2,3,4-tetrahydroisoquinoline-2-carbonyl)-1-methylcyclohexane-1-carboxylic acid], in experiment [1], the concentration for a half-maximal effect (EC50) is 2.2 nM. In addition, the IC50 in experiment [2] amounted to 5.3 nM.

Take `Cc1nc(COc2ccc(Cl)c3c2[C@@H](CN2CCCC2=O)N(C(=O)[C@@H]2CCCC[C@]2(C)C(=O)O)CC3)no1` [Example 168, (1S,2R)-2-((S)-5-chloro-8-((5-methyl-1,2,4-oxadiazol-3-yl)methoxy)-1-((2-oxopyrrolidin-1-yl)methyl)-1,2,3,4-tetrahydroisoquinoline-2-carbonyl)-1-methylcyclohexane-1-carboxylic acid]: in experiment [1], the EC50 amounted to 85 nM. The molecule further showed a half-maximal inhibitory concentration (IC50) in experiment [2] of 8.5 nM.

In the case of `Cc1scnc1COc1ccc(Cl)c2c1[C@@H](CN1CC3(CC3)CC1=O)N(C(=O)[C@@H]1CCCC[C@]1(C)C(=O)O)CC2` [Example 205, (1S,2R)-2-((S)-5-chloro-8-((5-methylthiazol-4-yl)methoxy)-1-((6-oxo-5-azaspiro[2.4]heptan-5-yl)methyl)-1,2,3,4-tetrahydroisoquinoline-2-carbonyl)-1-methylcyclohexane-1-carboxylic acid], the EC50 in experiment [1] came to 19 nM. This molecule also yielded an IC50 in experiment [2] of 5.5 nM.

For `Cn1cnc(COc2ccc(Br)c3c2[C@@H](CN2Cc4ccccc4C2=O)N(C(=O)[C@@H]2CCCC[C@@H]2C(=O)O)CC3)n1` [Example 39, (1S,2R)-2-((S)-5-bromo-8-((1-methyl-1H-1,2,4-triazol-3-yl)methoxy)-1-((1-oxoisoindolin-2-yl)methyl)-1,2,3,4-tetrahydroisoquinoline-2-carbonyl)cyclohexane-1-carboxylic acid], the half-maximal effective concentration (EC50) in experiment [1] was 45 nM. This molecule also displayed an IC50 in experiment [2] of 8.3 nM.

`Cc1cc(C(=O)N2CC[C@H](Oc3cccc4c3[C@@H](CN3C(=O)c5ccccc5C3=O)N(C(=O)[C@@H]3CCCC[C@@H]3C(=O)O)CC4)C2)no1` [Example 4, (1S,2R)-2-((S)-1-((1,3-Dioxoisoindolin-2-yl)methyl)-8-(((S)-1-(5-methylisoxazole-3-carbonyl)pyrrolidin-3-yl)oxy)-1,2,3,4-tetrahydroisoquinoline-2-carbonyl)cyclohexane-1-carboxylic acid]: the EC50 in experiment [1] was found to be 13 nM. Also, in experiment [2], it took 9 nM to reach half-maximal inhibition (IC50).

As for `CCn1nnc(COc2ccc(Cl)c3c2[C@@H](CN2CCCC2=O)N(C(=O)[C@@H]2CCCC[C@@H]2C(=O)O)CC3)c1C(F)F` [Example 79, (1S,2R)-2-((S)-5-Chloro-8-((5-(difluoromethyl)-1-ethyl-1H-1,2,3-triazol-4-yl)methoxy)-1-((2-oxopyrrolidin-1-yl)methyl)-1,2,3,4-tetrahydroisoquinoline-2-carbonyl)cyclohexane-1-carboxylic acid], the EC50 in experiment [1] worked out at 1.2 nM. This molecule also showed an IC50 in experiment [2] of 6.7 nM.

As to `C[C@]1(C(=O)O)CCCC[C@H]1C(=O)N1CCc2c(Cl)ccc(OCc3nnn(C4CC4)c3C(F)F)c2[C@H]1CN1CC2(CC2)CC1=O` [Example 172, (1S,2R)-2-((S)-5-chloro-8-((1-cyclopropyl-5-(difluoromethyl)-1H-1,2,3-triazol-4-yl)methoxy)-1-((6-oxo-5-azaspiro [2.4]heptan-5-yl)methyl)-1,2,3,4-tetrahydroisoquinoline-2-carbonyl)-1-methylcyclohexane-1-carboxylic acid], the EC50 in experiment [1] worked out at 1.1 nM. For the same molecule, the IC50 in experiment [2] is 6 nM.

Turning to `C[C@@H]1CCC(=O)N1C[C@@H]1c2c(OCc3nnn(C)c3C(F)F)ccc(Cl)c2CCN1C(=O)[C@@H]1CCCC[C@]1(C)C(=O)O` [Example 194, (1S,2R)-2-((S)-5-chloro-8-((5-(difluoromethyl)-1-methyl-1H-1,2,3-triazol-4-yl)methoxy)-1-(((R)-2-methyl-5-oxopyrrolidin-1-yl)methyl)-1,2,3,4-tetrahydroisoquinoline-2-carbonyl)-1-methylcyclohexane-1-carboxylic acid], the concentration for a half-maximal effect (EC50) in experiment [1] amounted to 12 nM. Further, the IC50 in experiment [2] was 7.9 nM.

As for `Cn1nc(COc2ccc(Cl)c3c2[C@@H](CN2CCCC2=O)N(C(=O)[C@@H]2CCCC[C@@H]2C(=O)O)CC3)c2ccccc21` [Example 98, (1S,2R)-2-((S)-5-Chloro-8-((1-methyl-1H-indazol-3-yl)methoxy)-1-((2-oxopyrrolidin-1-yl)methyl)-1,2,3,4-tetrahydroisoquinoline-2-carbonyl) cyclohexane-1-carboxylic acid], the half-maximal effective concentration (EC50) in experiment [1] worked out at 330 nM. For the same molecule, in experiment [2], the IC50 is 10 nM.

As for `Cn1nnc(COc2ccc(Cl)c3c2[C@@H](CN2CC4(CC4)CC2=O)N(C(=O)[C@@H]2CCCC[C@@H]2c2nnn[nH]2)CC3)c1C(F)F` [Example 202, 5-(((S)-2-((1R,2S)-2-(1H-tetrazol-5-yl)cyclohexane-1-carbonyl)-5-chloro-8-((5-(difluoromethyl)-1-methyl-1H-1,2,3-triazol-4-yl)methoxy)-1,2,3,4-tetrahydroisoquinolin-1-yl)methyl)-5-azaspiro[2.4]heptan-6-one], the 50% effective concentration (EC50) in experiment [1] was found to be 79 nM.

Consider `C[C@@H]1CC(=O)N(C[C@@H]2c3c(OCc4nnn(C)c4C(F)(F)F)ccc(Cl)c3CCN2C(=O)[C@H]2CCCC[C@]2(C)C(=O)O)C1` [Example 133, (1S,2S)-2-((S)-5-chloro-1-(((R)-4-methyl-2-oxopyrrolidin-1-yl)methyl)-8((1-methyl-5-(trifluoromethyl)-1H-1,2,3-triazol-4-yl)methoxy)-1,2,3,4-tetrahydroisoquinoline-2-carbonyl)-1-methylcyclohexane-1-carboxylic acid], for which the half-maximal effective concentration (EC50) in experiment [1] stood at 20 nM.

For the molecule `O=C(O)[C@H]1CCCC[C@H]1C(=O)N1CCc2c(Cl)ccc(OCc3noc4ccccc34)c2[C@H]1CN1CCCC1=O` [Example 72, (1S,2R)-2-((S)-8-(Benzo[d]isoxazol-3-ylmethoxy)-5-chloro-1-((2-oxopyrrolidin-1-yl)methyl)-1,2,3,4-tetrahydroisoquinoline-2-carbonyl)cyclohexane-1-carboxylic acid], in experiment [1], the EC50 was found to be 2.8 nM.

As to `O=C1CCCN1C[C@@H]1c2c(OCc3noc4ccccc34)ccc(Cl)c2CCN1C(=O)[C@@H]1CCCC[C@@H]1c1nn[nH]n1` [Example 81, 1-(((S)-2-((1R,2S)-2-(2H-tetrazol-5-yl)cyclohexane-1-carbonyl)-8-(benzo[d]isoxazol-3-ylmethoxy)-5-chloro-1,2,3,4-tetrahydroisoquinolin-1-yl)methyl)pyrrolidin-2-one], the EC50 in experiment [1] came to 260 nM.

On to `C[C@]1(C(=O)O)CCCC[C@H]1C(=O)N1CCc2c(Cl)cc(F)c(OCc3nnn4c3CCCC4)c2[C@H]1CN1CC2(CC2)CC1=O` [Example 144, (1S,2R)-2-((S)-5-chloro-7-fluoro-1-((6-oxo-5-azaspiro[2.4]heptan-5-yl)methyl)-8-((4,5,6,7-tetrahydro-[1,2,3]triazolo[1,5-a]pyridin-3-yl)methoxy)-1,2,3,4-tetrahydroisoquinoline-2-carbonyl)-1-methylcyclohexane-1-carboxylic acid], for which the EC50 in experiment [1] was found to be 0.022 nM.

`Cn1nnc(COc2ccc(Cl)c3c2[C@@H](CN2CCCC2=O)N(C(=O)[C@@H]2CCCC[C@]2(C)c2nn[nH]n2)CC3)c1C(F)F` [Example 151, 1-(((S)-5-chloro-8-((5-(difluoromethyl)-1-methyl-1H-1,2,3-triazol-4-yl)methoxy)-2-((1R,2S)-2-methyl-2-(2H-tetrazol-5-yl)cyclohexane-1-carbonyl)-1,2,3,4-tetrahydroisoquinolin-1-yl)methyl)pyrrolidin-2-one]: the EC50 in experiment [1] is 16 nM.

As for `Cn1nnc(COc2ccc(Cl)c3c2[C@@H](CN2CC4(CC4)CC2=O)N(C(=O)[C@@H]2CCCC[C@@H]2C(=O)O)CC3)c1C(F)F` [Example 197, (1S,2R)-2-((S)-5-Chloro-8-((5-(difluoromethyl)-1-methyl-1H-1,2,3-triazol-4-yl)methoxy)-1-((6-oxo-5-azaspiro [2.4]heptan-5-yl)methyl)-1,2,3,4-tetrahydroisoquinoline-2-carbonyl) cyclohexane-1-carboxylic acid], the EC50 in experiment [1] turned out to be 0.51 nM.
